Legend:
[1] = biological target: His6-TEV-PDGFRβ (557-1016) (Homo sapiens (Human), UniProt P09619); assay: PDGFRβ HTRF Assay; format: biochemical; conditions: read-out: PDGFR HTRF IC50
Method in brief: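 Human PDGFRβ (557-1016) pre-incubated with compound for 30 min at RT in pH 7.5 HEPES/MgCl2/EGTA/Brij-35/DTT buffer. Reaction started with ATP and TK-biotin peptide, run 3 h at RT, then quenched with EDTA-containing Eu-cryptate antibody/streptavidin-XL665. HTRF 665/620 nm ratio read after 60 min; percent inhibition relative to DMSO and 10 μM imatinib controls.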

PDGFRβ = PDGFRβ (Rattus norvegicus (Rat), UniProt Q05030); assay: PDGFRβ Cellular Assay (PDGFRb P-Y751 HTRF in A10 cells stimulated with PDGF-BB); format: cell-based; conditions: read-out: PDGFR Cellular IC50
PDGFRβ, sequence (Q05030 32-1097): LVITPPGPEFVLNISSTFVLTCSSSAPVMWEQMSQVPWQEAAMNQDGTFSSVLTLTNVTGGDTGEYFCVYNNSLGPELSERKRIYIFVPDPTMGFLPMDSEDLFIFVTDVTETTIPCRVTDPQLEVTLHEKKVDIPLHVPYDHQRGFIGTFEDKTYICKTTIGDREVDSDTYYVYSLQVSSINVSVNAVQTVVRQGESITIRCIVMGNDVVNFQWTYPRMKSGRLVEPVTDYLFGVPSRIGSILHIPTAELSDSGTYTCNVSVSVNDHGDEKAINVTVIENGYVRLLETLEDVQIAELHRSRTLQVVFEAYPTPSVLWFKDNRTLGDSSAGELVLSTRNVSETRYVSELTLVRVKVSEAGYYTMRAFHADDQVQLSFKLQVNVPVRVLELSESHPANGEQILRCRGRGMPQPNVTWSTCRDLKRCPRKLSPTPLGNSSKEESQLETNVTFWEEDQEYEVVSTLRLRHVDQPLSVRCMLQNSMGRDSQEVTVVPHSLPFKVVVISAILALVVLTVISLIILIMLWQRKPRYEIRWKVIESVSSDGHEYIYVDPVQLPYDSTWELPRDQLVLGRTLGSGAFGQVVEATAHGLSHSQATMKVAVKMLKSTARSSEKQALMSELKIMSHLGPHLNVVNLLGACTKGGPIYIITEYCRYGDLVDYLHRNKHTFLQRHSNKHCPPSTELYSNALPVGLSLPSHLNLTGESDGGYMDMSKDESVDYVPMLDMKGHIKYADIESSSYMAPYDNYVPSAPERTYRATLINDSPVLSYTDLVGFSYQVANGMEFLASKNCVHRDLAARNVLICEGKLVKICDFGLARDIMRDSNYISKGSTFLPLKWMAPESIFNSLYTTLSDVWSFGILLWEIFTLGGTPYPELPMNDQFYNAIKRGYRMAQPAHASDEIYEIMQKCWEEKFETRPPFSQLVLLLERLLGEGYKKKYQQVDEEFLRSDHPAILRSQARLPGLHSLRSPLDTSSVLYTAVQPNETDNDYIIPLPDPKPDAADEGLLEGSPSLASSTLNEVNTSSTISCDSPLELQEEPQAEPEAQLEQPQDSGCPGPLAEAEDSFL
Procedure: II. Methods and Procedures
Cell Culture and Preparation: Cells are cultured according to ATCC procedure (5) with the addition of the antibiotic penicillin-streptomycin. If working from frozen, cells should be thawed according to ATCC procedure. Depending on the cell density of frozen vial, cells will need time to recover from thaw. An 80% confluent T75 flask should be enough for one 384 well plate.
Stock Solutions: Rat PDGFBB. A 100 ug/mL stock is prepared by reconstituting 50 ug in 500 uL of 4 mM HCl and 0.1% BSA. It can be stored for a month at 4° C., or aliquoted out and frozen in the −20/−80° C. to avoid multiple free-thaw cycles.
Freshly Prepared Solutions:
1× Cisbio cell lysis buffer. The cell lysis buffer is diluted 4-fold with molecular grade water. The blocking agent is then diluted 25-fold in the diluted lysis buffer.
Antibody solutions. Equal amounts d2 and cryptate antibody are diluted 20-fold in detection buffer.
Rat PDGFBB. A working stock of 100 ng/mL is created from the stock solution in 10% FBS culture media.
Step 1: Plating Cells: Media from the A10 cell flask is aspirated. The cells are rinsed with PBS and then trypsinized to disperse the cell layer. The cells are then pelleted are resuspended to 1.25e5 cells/mL. […] Plates are covered and placed in the incubator (37° C. 5% CO2) overnight to allow cells to adhere.
Step 2: Compound Dispense: Approximately 18 hours after plating, dispense 40 nL compound onto cells using Echo. Column 12 is the neutral control DMSO, column 24 is the inhibitor control 10 mM Imatinib (10 uM final assay concentration). The plate is returned to the incubator for 3 hours.
After 10 minutes the media is removed by flicking the plate.
Step 4: Cell lysis and antibody addition: 20 uL lysis buffer per well is added to the plate via Tempest. 5 uL antibody solution is added per well via the Tempest. The plate is placed on the shaker at 230 rpm for 1 hour at room temperature.
Step 5: Detection: The plate is read using the HTRF module on the BMG Pherastar. Data is analyzed using Genedata Screener.
III. Calculations and Formulas
% Inhibition: % Inhibition=(NC−sample)/(NC−PC)*100 where NC is the mean of negative control (reactions without inhibitor), and PC is the mean of positive control (10 μM imatinib).
IC50 values are determined from a 4-parameter fit, using the following equation: Y=Bottom+(Top−Bottom)/(1+10((Log IC50−X)*Hill slope)), where X=log10 of the compound concentration; top can be defined by PC; bottom defined by NC.

His6-TEV-PDGFRβ (557-1016), sequence (P09619 557-1016): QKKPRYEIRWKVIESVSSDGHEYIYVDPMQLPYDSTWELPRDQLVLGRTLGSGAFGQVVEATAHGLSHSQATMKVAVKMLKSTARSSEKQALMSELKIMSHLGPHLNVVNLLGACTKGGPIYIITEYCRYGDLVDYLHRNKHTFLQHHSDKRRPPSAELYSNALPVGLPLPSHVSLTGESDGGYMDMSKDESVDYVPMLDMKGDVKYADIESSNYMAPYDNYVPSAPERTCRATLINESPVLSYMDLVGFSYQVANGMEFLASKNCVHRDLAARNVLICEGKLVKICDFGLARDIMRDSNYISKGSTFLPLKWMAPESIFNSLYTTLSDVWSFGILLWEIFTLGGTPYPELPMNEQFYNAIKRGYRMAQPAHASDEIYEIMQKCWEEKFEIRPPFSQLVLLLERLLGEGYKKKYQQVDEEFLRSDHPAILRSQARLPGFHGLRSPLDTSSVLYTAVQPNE

| Compound | IC50 [1] | IC50 (PDGFRβ) |
| --- | --- | --- |
| Cc1ncc(NC(=O)CCN2CCCC2(C)C)cc1NC(=O)c1cnn2cc(-c3cnn(C)c3)sc12 [Example 10, N-(5-(3-(2,2-dimethylpyrrolidin-1-yl)propanamido)-2-methyl-pyridin-3-yl)-2-(1-methyl-1H-pyrazol-4-yl)pyrazolo[5,1-b]thiazole-7-carboxamide] | 0.3 nM | 5.2 nM |
| Cc1ncc(C(=O)NCCN2CC(F)(F)C2)cc1NC(=O)c1cnn2cc(-c3ccncc3)sc12 [Example 152, N-(5-((2-(3,3-difluoroazetidin-1-yl)ethyl)carbamoyl)-2-methylpyridin-3-yl)-2-(pyridin-4-yl)pyrazolo[5,1-b]thiazole-7-carboxamide] | 0.4 nM | 66.2 nM |
| Cc1ncc(C(=O)NCCN2CC3CCC2CC3)cc1NC(=O)c1cnn2cc(-c3cnn(CC(N)=O)c3)sc12 [Example 150, N-(5-((2-(2-azabicyclo[2.2.2]octan-2-yl)ethyl)carbamoyl)-2-methylpyridin-3-yl)-2-(1-(2-amino-2-oxoethyl)-1H-pyrazol-4-yl)pyrazolo[5,1-b]thiazole-7-carboxamide] | 0.6 nM | > 2000 nM |
| Cc1ncc(C(=O)NCCN2CCCC23COC3)cc1NC(=O)c1cnn2cc(-c3cnn(C)c3)sc12 [Example 114, N-(5-((2-(2-oxa-5-azaspiro[3.4]octan-5-yl)ethyl)carbamoyl)-2-methylpyridin-3-yl)-2-(1-methyl-1H-pyrazol-4-yl)pyrazolo[5,1-b]thiazole-7-carboxamide] | 0.4 nM | 27.6 nM |
| COCCn1cc(-c2cn3ncc(C(=O)Nc4cc(C(=O)NCCN5CC6(CCC6)C5)cnc4C)c3s2)cn1 [Example 168, N-(5-((2-(2-azaspiro[3.3]heptan-2-yl)ethyl)carbamoyl)-2-methylpyridin-3-yl)-2-(1-(2-methoxyethyl)-1H-pyrazol-4-yl)pyrazolo[5,1-b]thiazole-7-carboxamide] | 0.6 nM | 371 nM |
| Cc1ncc(C(=O)NCCN2CCCC2(C)C)cc1NC(=O)c1cnn2cc(-c3cnn(C4CC4)c3)sc12 [Example 6, 2-(1-cyclopropyl-1H-pyrazol-4-yl)-N-(5-((2-(2,2-dimethylpyrrolidin-1-yl)ethyl)carbamoyl)-2-methylpyridin-3-yl)pyrazolo[5,1-b]thiazole-7-carboxamide] | 0.2 nM | 7.7 nM |
| Cc1ncc(C(=O)NCCN2CCC(C)(C)C2)cc1NC(=O)c1cnn2cc(-c3ccncc3)sc12 [Example 156, N-(5-((2-(3,3-dimethylpyrrolidin-1-yl)ethyl)carbamoyl)-2-methylpyridin-3-yl)-2-(pyridin-4-yl)pyrazolo[5,1-b]thiazole-7-carboxamide] | 0.4 nM | 26.2 nM |
| COCCn1cc(-c2cn3ncc(C(=O)Nc4cc(C(=O)NCCN5CC(C)(C)C5)cnc4C)c3s2)cn1 [Example 166, N-(5-((2-(3,3-dimethylazetidin-1-yl)ethyl)carbamoyl)-2-methylpyridin-3-yl)-2-(1-(2-methoxyethyl)-1H-pyrazol-4-yl)pyrazolo[5,1-b]thiazole-7-carboxamide] | 0.7 nM | 233 nM |
| Cc1ncc(C(=O)NCCN2CC3CCC2CC3)cc1NC(=O)c1cnn2cc(-c3cnn(C)c3C)sc12 [Example 171, N-(5-((2-(2-azabicyclo[2.2.2]octan-2-yl)ethyl)carbamoyl)-2-methylpyridin-3-yl)-2-(1,5-dimethyl-1H-pyrazol-4-yl)pyrazolo[5,1-b]thiazole-7-carboxamide] | 0.3 nM | 34.8 nM |
| Cc1ncc(NC(=O)CCCN2CCC[C@@H]2C)cc1NC(=O)c1cnn2cc(-c3cnn(C)c3)sc12 [Example 106, (S)-2-(1-methyl-1H-pyrazol-4-yl)-N-(2-methyl-5-(4-(2-methylpyrrolidin-1-yl)butanamido)pyridin-3-yl)pyrazolo[5,1-b]thiazole-7-carboxamide] | 1.3 nM | 461 nM |
| COCCn1nc(C)c(-c2cn3ncc(C(=O)Nc4cc(NC(=O)CCN5CC6CCC(C5)O6)cnc4C)c3s2)c1C [Example 102, N-(5-(3-(8-oxa-3-azabicyclo[3.2.1]octan-3-yl)propanamido)-2-methylpyridin-3-yl)-2-(1-(2-methoxyethyl)-3,5-dimethyl-1H-pyrazol-4-yl)pyrazolo[5,1-b]thiazole-7-carboxamide] | 1.3 nM | 21.8 nM |
| COCCn1cc(-c2cn3ncc(C(=O)Nc4cc(C(=O)NCCN5CCC(F)(F)C5)cnc4C)c3s2)cn1 [Example 167, N-(5-((2-(3,3-difluoropyrrolidin-1-yl)ethyl)carbamoyl)-2-methylpyridin-3-yl)-2-(1-(2-methoxyethyl)-1H-pyrazol-4-yl)pyrazolo[5,1-b]thiazole-7-carboxamide] | 0.5 nM | 24.7 nM |
| Cc1ncc(C(=O)NCCN2CCC3(CCC3)C2)cc1NC(=O)c1cnn2cc(-c3cnn(C)c3)sc12 [Example 113, N-(5-((2-(6-azaspiro[3.4]octan-6-yl)ethyl)carbamoyl)-2-methylpyridin-3-yl)-2-(1-methyl-1H-pyrazol-4-yl)pyrazolo[5,1-b]thiazole-7-carboxamide] | < 0.1 nM | 11.5 nM |
| Cc1ncc(C(=O)NCCN2CCCC23COC3)cc1NC(=O)c1cnn2cc(-c3cn(C)nc3C)sc12 [Example 176, N-(5-((2-(2-oxa-5-azaspiro[3.4]octan-5-yl)ethyl)carbamoyl)-2-methylpyridin-3-yl)-2-(1,3-dimethyl-1H-pyrazol-4-yl)pyrazolo[5,1-b]thiazole-7-carboxamide] | 0.5 nM | 29.1 nM |
| Cc1ncc(C(=O)NCCN2CCCC23COC3)cc1NC(=O)c1cnn2cc(-c3c(C)nn(C)c3C)sc12 [Example 179, N-(5-((2-(2-oxa-5-azaspiro[3.4]octan-5-yl)ethyl)carbamoyl)-2-methylpyridin-3-yl)-2-(1,3,5-trimethyl-1H-pyrazol-4-yl)pyrazolo[5,1-b]thiazole-7-carboxamide] | 1 nM | 54.5 nM |
| Cc1ncc(C(=O)NCCN2CC3(CCC3)C2)cc1NC(=O)c1cnn2cc(-c3cnn(C)c3)sc12 [Example 124, N-(5-((2-(2-azaspiro[3.3]heptan-2-yl)ethyl)carbamoyl)-2-methylpyridin-3-yl)-2-(1-methyl-1H-pyrazol-4-yl)pyrazolo[5,1-b]thiazole-7-carboxamide] | 0.6 nM | 134 nM |
| Cc1ncc(C(=O)NCCN2CCC3(CC3)C2)cc1NC(=O)c1cnn2cc(-c3cn(C)nc3C)sc12 [Example 177, N-(5-((2-(5-azaspiro[2.4]heptan-5-yl)ethyl)carbamoyl)-2-methylpyridin-3-yl)-2-(1,3-dimethyl-1H-pyrazol-4-yl)pyrazolo[5,1-b]thiazole-7-carboxamide] | 0.3 nM | 18.2 nM |
| Cc1ncc(NC(=O)CCN2CCCC23CC3)cc1NC(=O)c1cnn2cc(-c3cnn(C)c3)sc12 [Example 98] | 0.3 nM | 4.7 nM |
| CC(=O)Nc1ccnc(-c2cn3ncc(C(=O)Nc4cc(C(=O)NCCN5CC6CCC5CC6)cnc4C)c3s2)c1 [Example 146, N-(5-((2-(2-azabicyclo[2.2.2]octan-2-yl)ethyl)carbamoyl)-2-methylpyridin-3-yl)-2-(4-acetamidopyridin-2-yl)pyrazolo[5,1-b]thiazole-7-carboxamide] | 0.6 nM | 858 nM |
| Cc1ncc(C(=O)NCCN2CCC(F)(F)CC2)cc1NC(=O)c1cnn2cc(-c3cnn(C)c3)sc12 [Example 119, N-(5-((2-(4,4-difluoropiperidin-1-yl)ethyl)carbamoyl)-2-methylpyridin-3-yl)-2-(1-methyl-1H-pyrazol-4-yl)pyrazolo[5,1-b]thiazole-7-carboxamide] | 0.3 nM | 4.9 nM |
| CC(=O)Nc1cncc(-c2cn3ncc(C(=O)Nc4cc(C(=O)NCCN5CC6CCC5CC6)cnc4C)c3s2)c1 [Example 147, N-(5-((2-(2-azabicyclo[2.2.2]octan-2-yl)ethyl)carbamoyl)-2-methylpyridin-3-yl)-2-(5-acetamidopyridin-3-yl)pyrazolo[5,1-b]thiazole-7-carboxamide] | 0.8 nM | > 2000 nM |

Reference: US20240109917A1 (ACTELION PHARMACEUTICALS LTD, priority 2020, published 2024)
